Legend:
Rattus norvegicus [1] = organism: Rattus norvegicus; test: Binding affinity to rat GABA receptor at 10 uM after 60 mins by radioligand binding assay relative to control
[2] = target: Glycogen synthase kinase-3 alpha (Homo sapiens) (UniProt P49840); test: Inhibition of GSK3alpha (unknown origin) at 10 uM in presence of ATP relative to control
[3] = target: Delta-type opioid receptor (Homo sapiens, UniProt P41143); test: Displacement of [3H]DADLE from human recombinant delta opioid receptor at 10 uM after 60 mins by scintillation counting analysis relative to control
D(2) dopamine receptor = D(2) dopamine receptor (Homo sapiens, UniProt P14416); test: Displacement of [3H]7-OH-DPAT from human recombinant dopamine D2S receptor after 60 mins by scintillation counting analysis
[4] = target: Platelet-derived growth factor receptor beta (Homo sapiens) (UniProt P09619); test: Inhibition of recombinant His-tagged human PDGFRbeta (558 to 1106 residues) cytoplasmic domain expressed in baculovirus expression system at 10 uM in presence of ATP relative to control
[5] = AUC (0 to infinity) in Sprague-Dawley rat at 1 mg/kg, iv; format: ADME, organism-based; parameters: dose 1 mg/kg, time infinity, route intravenous; conditions: in vivo
[6] = Oral bioavailability in Sprague-Dawley rat at 5 mg/kg; format: ADME, organism-based; conditions: in vivo
[7] = target: Muscarinic acetylcholine receptor M3 (Homo sapiens, UniProt P20309); test: Displacement of [3H]4-DAMP from human recombinant M3 receptor at 1 uM after 60 mins by scintillation counting analysis relative to control
[8] = target: Muscarinic acetylcholine receptor M1 (Homo sapiens, UniProt P11229); test: Displacement of […] from human recombinant M1 receptor after 60 mins by scintillation counting analysis
Vasopressin V1a receptor = Vasopressin V1a receptor (Homo sapiens, UniProt P37288); test: Displacement of [3H]AVP from human recombinant V1a receptor at 1 uM after 60 mins by scintillation counting analysis relative to control
[9] = target: 5-hydroxytryptamine receptor 2B (Homo sapiens, UniProt P41595); test: Displacement of [125I]+/-DOI from human recombinant 5-HT2B receptor after 60 mins by scintillation counting analysis
[10] = target: Serine/threonine-protein kinase PAK 4 (Homo sapiens) (UniProt O96013); test: Inhibition of recombinant GST-tagged human PAK4 catalytic domain expressed in baculovirus expression system at 10 uM in presence of ATP relative to control
Adenosine receptor A2a = Adenosine receptor A2a (Homo sapiens, UniProt P29274); test: Displacement of [3H]-CGS 21680 from human recombinant adenosine A2A receptor at 10 uM after 120 mins by scintillation counting analysis relative to control
[11] = target: Sodium-dependent serotonin transporter (Homo sapiens, UniProt P31645); test: Displacement of [3H]-imipramine from recombinant human 5-HT transporter at 1 uM after 60 mins by scintillation counting relative to control
Melanocortin receptor 4 = Melanocortin receptor 4 (Homo sapiens, UniProt P32245); test: Displacement of [125I]NDP-alpha -MSH from human recombinant MC4 receptor at 10 uM after 120 mins by scintillation counting analysis relative to control
[12] = target: Neuropeptide Y receptor type 2 (Homo sapiens, UniProt P49146); test: Displacement of [125I]peptide YY from human Y2 receptor after 120 mins by scintillation counting analysis
[13] = target: T1, Nuclear receptor ROR-gamma (Homo sapiens, UniProt P51449); test: Inverse agonist activity at RORgammat in human CD4 positive T cells assessed as inhibition of IL17A production in human Th17 cells after 1 hr; format: cell-based
T1 sequence (P51449 whole entry): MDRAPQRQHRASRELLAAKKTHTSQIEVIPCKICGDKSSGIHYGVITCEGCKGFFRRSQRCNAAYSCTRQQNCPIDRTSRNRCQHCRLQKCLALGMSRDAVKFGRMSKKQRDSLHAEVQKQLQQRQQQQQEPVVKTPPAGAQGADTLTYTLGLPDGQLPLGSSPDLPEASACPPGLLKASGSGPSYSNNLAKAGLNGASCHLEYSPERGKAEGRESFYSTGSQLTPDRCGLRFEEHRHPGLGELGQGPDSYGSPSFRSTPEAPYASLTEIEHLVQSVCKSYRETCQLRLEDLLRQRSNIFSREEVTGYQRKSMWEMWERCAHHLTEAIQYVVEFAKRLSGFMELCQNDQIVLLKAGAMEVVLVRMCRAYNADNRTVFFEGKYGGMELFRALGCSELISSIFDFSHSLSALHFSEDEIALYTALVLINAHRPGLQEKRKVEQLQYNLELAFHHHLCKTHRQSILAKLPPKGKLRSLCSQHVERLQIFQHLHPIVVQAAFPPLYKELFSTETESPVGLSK

[14] = target: Casein kinase II subunit alpha (Homo sapiens) (UniProt P68400); test: Inhibition of CK2alpha1 (unknown origin) at 10 uM in presence of ATP relative to control
[15] = Thermodynamic solubility of the compound in 30 mM phosphate buffer at 10 mM at pH 7 after 2 to 5 days by UV-HPLC analysis; format: physicochemical; conditions: read-out: Therm_solubility
[16] = Thermodynamic solubility of the compound in fasted state simulated intestinal […] after 2 to 5 days by UV-HPLC analysis; format: physicochemical; conditions: read-out: Therm_solubility
[17] = target: Kappa-type opioid receptor (Homo sapiens, UniProt P41145); test: Displacement of [3H]U69593 from human kappa receptor at 10 uM after 60 mins by scintillation counting analysis relative to control
[18] = Tmax in Sprague-Dawley rat at 5 mg/kg, po; format: ADME, organism-based; conditions: in vivo
Rattus norvegicus [19] = organism: Rattus norvegicus; test: Displacement of [3H]flunitrazepam from rat brain central BZD at 10 uM after 60 mins relative to control
[20] = target: 5-hydroxytryptamine receptor 1B (Rattus norvegicus) (UniProt P28564); test: Displacement of [125I]-CYP from rat brain 5-HT1B receptor at 1 uM after 120 mins by scintillation counting analysis relative to control
[21] = target: 5-hydroxytryptamine receptor 1A (Homo sapiens, UniProt P08908); test: Displacement of [3H]8-OH-DPAT from recombinant human 5-HT1A receptor after 60 mins by scintillation counting analysis
[22] = target: 5-hydroxytryptamine receptor 3A (Homo sapiens) (UniProt P46098); test: Displacement of [3H]BRL 43694 from human recombinant 5-HT3 receptor at 1 uM after 120 mins by scintillation counting analysis relative to control
Nociceptin receptor = Nociceptin receptor (Homo sapiens, UniProt P41146); test: Displacement of [3H]nociceptin from human recombinant NOP receptor after 60 mins by scintillation counting analysis
Adenosine receptor A3 = Adenosine receptor A3 (Homo sapiens, UniProt P0DMS8); test: Displacement of [125I]AB-MECA from human recombinant adenosine A3 receptor after 120 mins by scintillation counting analysis
[23] = Clearance in Sprague-Dawley rat at 1 mg/kg, iv; format: ADME, organism-based; conditions: in vivo
[24] = target: Endothelin-1 receptor (Homo sapiens) (UniProt P25101); test: Displacement of [125I]-endothelin-1 from human recombinant ETA receptor at 1 uM after 120 mins by scintillation counting analysis relative to control
Endothelin-1 receptor (Homo sapiens), sequence (P25101 whole entry): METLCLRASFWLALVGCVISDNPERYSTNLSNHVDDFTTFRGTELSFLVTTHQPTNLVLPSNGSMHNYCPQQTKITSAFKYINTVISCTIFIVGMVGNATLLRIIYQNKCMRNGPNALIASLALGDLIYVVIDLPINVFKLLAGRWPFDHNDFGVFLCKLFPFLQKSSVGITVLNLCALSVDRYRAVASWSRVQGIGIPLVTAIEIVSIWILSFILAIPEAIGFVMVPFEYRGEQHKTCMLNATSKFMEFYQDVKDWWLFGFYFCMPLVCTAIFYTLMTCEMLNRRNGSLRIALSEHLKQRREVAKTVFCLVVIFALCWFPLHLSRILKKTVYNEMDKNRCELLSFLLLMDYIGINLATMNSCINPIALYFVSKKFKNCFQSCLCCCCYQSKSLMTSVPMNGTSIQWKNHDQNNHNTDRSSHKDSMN

Casein kinase II subunit alpha (Homo sapiens), sequence (P68400 whole entry, looked up): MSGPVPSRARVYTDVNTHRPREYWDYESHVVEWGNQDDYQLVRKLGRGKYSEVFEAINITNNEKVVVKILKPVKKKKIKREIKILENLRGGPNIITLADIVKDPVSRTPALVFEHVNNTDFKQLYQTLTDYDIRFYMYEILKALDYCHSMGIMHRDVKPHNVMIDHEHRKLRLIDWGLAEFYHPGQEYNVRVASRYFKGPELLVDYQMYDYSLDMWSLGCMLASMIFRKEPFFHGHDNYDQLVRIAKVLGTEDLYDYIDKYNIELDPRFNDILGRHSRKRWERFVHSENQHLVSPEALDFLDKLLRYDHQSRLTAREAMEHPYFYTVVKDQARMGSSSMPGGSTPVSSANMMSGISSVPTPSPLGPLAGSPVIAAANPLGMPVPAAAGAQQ
Platelet-derived growth factor receptor beta (Homo sapiens), sequence (P09619 whole entry, the tested form may be a part): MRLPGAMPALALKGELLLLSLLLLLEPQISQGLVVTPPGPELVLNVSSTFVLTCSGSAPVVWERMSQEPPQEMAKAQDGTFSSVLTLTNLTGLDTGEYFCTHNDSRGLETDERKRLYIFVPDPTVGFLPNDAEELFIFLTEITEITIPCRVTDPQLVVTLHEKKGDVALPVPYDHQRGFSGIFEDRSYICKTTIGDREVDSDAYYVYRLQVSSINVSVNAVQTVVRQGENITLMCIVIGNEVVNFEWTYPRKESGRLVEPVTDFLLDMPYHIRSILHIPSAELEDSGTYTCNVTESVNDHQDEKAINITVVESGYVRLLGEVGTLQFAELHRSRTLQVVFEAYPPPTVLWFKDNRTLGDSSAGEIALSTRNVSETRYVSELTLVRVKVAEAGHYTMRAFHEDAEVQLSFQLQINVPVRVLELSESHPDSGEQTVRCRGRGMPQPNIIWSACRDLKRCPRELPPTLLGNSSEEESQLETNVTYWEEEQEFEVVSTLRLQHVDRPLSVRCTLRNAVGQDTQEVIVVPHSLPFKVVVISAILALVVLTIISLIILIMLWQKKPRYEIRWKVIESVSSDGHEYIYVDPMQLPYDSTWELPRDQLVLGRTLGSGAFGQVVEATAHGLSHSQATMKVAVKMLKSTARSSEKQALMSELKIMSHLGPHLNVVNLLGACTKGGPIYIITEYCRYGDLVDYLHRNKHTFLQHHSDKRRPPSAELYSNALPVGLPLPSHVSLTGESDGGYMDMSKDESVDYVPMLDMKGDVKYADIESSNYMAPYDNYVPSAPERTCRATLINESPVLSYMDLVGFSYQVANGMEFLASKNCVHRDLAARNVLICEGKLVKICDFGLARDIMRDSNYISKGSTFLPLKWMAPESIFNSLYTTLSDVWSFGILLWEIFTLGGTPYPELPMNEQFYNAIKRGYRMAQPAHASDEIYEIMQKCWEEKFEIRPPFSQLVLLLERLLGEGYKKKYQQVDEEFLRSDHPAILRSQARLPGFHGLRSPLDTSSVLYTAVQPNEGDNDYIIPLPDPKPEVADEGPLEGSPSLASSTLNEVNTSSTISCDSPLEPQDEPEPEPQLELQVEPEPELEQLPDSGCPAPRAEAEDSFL
5-hydroxytryptamine receptor 1B (Rattus norvegicus), sequence (P28564 whole entry): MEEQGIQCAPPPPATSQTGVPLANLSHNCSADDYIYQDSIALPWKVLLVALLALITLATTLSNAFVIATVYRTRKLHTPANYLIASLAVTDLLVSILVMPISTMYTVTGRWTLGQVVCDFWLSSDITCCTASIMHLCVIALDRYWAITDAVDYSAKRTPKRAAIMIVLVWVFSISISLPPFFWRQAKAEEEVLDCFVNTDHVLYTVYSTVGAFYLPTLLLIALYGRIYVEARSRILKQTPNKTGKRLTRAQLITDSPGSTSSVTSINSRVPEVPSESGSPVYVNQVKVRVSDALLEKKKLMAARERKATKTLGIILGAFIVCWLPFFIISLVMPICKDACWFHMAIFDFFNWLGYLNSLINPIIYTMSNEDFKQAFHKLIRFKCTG
Adenosine receptor A2a, sequence (P29274 whole entry): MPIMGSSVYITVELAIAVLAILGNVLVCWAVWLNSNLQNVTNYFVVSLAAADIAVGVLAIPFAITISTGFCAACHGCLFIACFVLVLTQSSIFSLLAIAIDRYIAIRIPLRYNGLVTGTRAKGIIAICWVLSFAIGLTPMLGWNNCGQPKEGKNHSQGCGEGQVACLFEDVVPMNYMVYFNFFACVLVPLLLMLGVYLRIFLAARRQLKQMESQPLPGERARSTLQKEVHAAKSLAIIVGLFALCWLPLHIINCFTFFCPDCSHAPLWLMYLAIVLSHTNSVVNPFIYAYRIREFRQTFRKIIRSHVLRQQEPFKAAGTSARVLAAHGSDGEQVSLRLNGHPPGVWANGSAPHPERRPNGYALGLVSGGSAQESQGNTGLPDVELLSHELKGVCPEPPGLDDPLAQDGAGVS
Serine/threonine-protein kinase PAK 4 (Homo sapiens), sequence (O96013 whole entry, looked up, the tested form may be a part): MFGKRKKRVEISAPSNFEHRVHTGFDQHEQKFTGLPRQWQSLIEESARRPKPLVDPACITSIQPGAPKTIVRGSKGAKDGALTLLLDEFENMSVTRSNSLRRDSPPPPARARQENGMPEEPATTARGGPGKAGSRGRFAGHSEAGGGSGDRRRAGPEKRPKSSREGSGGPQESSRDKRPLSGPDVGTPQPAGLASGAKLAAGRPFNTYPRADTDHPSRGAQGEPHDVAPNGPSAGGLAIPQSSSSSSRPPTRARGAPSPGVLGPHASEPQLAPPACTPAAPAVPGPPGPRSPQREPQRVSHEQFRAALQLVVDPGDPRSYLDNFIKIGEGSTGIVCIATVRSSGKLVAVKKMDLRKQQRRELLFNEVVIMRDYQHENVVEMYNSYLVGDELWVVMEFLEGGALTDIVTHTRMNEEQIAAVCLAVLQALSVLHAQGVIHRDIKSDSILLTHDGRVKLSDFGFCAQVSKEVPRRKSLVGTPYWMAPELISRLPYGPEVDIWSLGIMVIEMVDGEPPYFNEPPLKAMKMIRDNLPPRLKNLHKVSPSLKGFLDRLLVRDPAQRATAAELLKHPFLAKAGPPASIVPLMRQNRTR
Delta-type opioid receptor, sequence (P41143 whole entry): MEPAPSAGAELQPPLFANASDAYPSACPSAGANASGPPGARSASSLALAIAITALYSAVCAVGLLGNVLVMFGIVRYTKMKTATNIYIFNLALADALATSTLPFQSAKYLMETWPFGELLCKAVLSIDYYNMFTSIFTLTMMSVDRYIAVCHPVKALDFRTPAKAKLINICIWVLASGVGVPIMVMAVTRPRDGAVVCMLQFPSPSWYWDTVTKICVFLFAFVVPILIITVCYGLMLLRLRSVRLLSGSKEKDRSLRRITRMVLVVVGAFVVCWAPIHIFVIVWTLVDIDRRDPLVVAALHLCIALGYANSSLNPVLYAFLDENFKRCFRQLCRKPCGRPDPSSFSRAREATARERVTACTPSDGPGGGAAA
Sodium-dependent serotonin transporter, sequence (P31645 whole entry, looked up): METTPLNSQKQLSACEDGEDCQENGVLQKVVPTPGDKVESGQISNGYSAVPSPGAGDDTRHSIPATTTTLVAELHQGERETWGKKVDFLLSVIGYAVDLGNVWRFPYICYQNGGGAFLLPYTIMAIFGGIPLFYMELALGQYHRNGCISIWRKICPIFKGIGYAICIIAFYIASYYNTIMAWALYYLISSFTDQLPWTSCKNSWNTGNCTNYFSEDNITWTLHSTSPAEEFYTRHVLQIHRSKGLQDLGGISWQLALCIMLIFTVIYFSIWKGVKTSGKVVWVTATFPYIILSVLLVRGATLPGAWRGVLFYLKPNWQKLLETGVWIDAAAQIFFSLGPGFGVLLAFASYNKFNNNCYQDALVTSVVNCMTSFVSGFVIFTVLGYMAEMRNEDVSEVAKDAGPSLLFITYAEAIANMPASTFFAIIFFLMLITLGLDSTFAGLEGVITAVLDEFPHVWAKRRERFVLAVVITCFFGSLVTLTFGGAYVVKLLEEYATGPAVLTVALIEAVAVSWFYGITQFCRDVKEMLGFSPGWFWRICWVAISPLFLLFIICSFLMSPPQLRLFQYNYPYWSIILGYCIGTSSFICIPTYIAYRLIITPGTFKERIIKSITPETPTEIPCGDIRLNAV
Nociceptin receptor, sequence (P41146 whole entry): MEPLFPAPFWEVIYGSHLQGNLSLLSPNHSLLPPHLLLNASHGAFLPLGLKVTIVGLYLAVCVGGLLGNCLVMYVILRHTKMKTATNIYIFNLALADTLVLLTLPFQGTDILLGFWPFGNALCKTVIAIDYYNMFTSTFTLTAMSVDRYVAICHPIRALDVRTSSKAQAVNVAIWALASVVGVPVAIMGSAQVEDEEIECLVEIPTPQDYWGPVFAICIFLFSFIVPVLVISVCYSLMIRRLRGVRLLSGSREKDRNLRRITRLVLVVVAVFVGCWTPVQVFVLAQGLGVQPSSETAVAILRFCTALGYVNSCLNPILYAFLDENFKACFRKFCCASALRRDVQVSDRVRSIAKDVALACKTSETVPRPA

**Q.** Which results are given for `CC(C)(C)NS(=O)(=O)c1ccc(-c2sc(C(=O)N[C@H]3C[C@H](C(=O)O)C3)nc2CC2CCCCC2)c2ccccc12`?
**A.** inhibition (Rattus norvegicus [1]): 14%; inhibition [2]: 0%; inhibition [3]: 22%; IC50 (D(2) dopamine receptor): 1.8 nM; inhibition [4]: -4%; AUC(0-inf) [5]: 325 ng·h/mL; bioavailability [6]: 20%; inhibition [7]: < 10%; IC50 [8]: 18 nM; inhibition (Vasopressin V1a receptor): < 10%; IC50 [9]: 3.2 nM; inhibition [10]: 7%; inhibition (Adenosine receptor A2a): 20%; inhibition [11]: < 10%; inhibition (Melanocortin receptor 4): 25%; IC50 [12]: 0.28 nM; EC50 [13]: 2.8 nM; inhibition [14]: 0%; solubility thermodynamic at 10000 µM [15]: < 1 µM; solubility thermodynamic [16]: > 400 µM; inhibition [17]: < 10%; Tmax [18]: 48 min; inhibition (Rattus norvegicus [19]): < 10%; inhibition [20]: < 10%; IC50 [21]: 0.43 nM; inhibition [22]: < 10%; IC50 (Nociceptin receptor): 0.98 nM; IC50 (Adenosine receptor A3): 0.17 nM; clearance [23]: 51.4 mL/min/kg; inhibition [24]: < 10%

Source: ChEMBL document CHEMBL4118122, “Identification and biological evaluation of thiazole-based inverse agonists of RORγt” (Bioorg Med Chem Lett, 2018)
